Test results from the NIST ThermoML archive (doi:10.1021/acs.jced.7b00601).
Numbers after ± are expanded uncertainties.

What was measured:
[1] = Molar enthalpy of transition or fusion; details: Crystal; DSC
[2] = Crystal; DTA

Q: With `COc1c(N2CCNC(C)C2)c(F)cc2c(=O)c(C(=O)O)cn(C3CC3)c12` (configuration not stated) [gatifloxacin] as the compound, how does the “Molar enthalpy of transition or fusion” value [1] read?
A: 8.35 ± 0.232 kcal/mol

Q: And the Normal melting temperature [2]?
A: 162.00 ± 2.9 °C
